{
  "source": "PubChem BioAssay AID2060903",
  "about": "(Molecular Pharmacology Branch, DTP, NCI, 2025);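 note: spheroids exposed to compounds for seven days before readout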",
  "system": "377384-186-R-J1-PDC complex spheroid viability",
  "assay": "Anticancer human tumor 377384-186-R-J1-PDC patient-derived pancreatic carcinoma cell line growth inhibition [RAS]",
  "details": "for IC50: curve of first compound; for viability, T/C: stronger effect = lower value",
  "outline": "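Multi-cell-type spheroids: tumor cells plus HUVEC endothelial cells and mesenchymal stem cells. RAS-pathway inhibitors were combined with targeted agents, each dosed in half-log steps down from clinical Cmax, or from 10 microM when Cmax was unknown.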",
  "data": [
    {"smiles": "CC(=O)OC12COC1CC(O)C1(C)C(=O)C(O)C3=C(C)C(OC(=O)C(O)C(NC(=O)OC(C)(C)C)c4ccccc4)CC(O)(C(OC(=O)c4ccccc4)C21)C3(C)C", "note": "(centres undefined) + C=CC(=O)N1CCN(c2nc(OCC3CCCN3C)nc3c(F)c(-c4nc(N)cc(C)c4C(F)(F)F)c(Cl)cc23)C(C)C1", "values": [
      {"measurement": "IC50", "setting": "second compound 0.00316 µM", "value": "< 31.6", "unit": "nM"},
      {"measurement": "IC50", "setting": "second compound 0.01 µM", "value": "< 31.6", "unit": "nM"},
      {"measurement": "IC50", "setting": "second compound 0.0316 µM", "value": "< 31.6", "unit": "nM"},
      {"measurement": "IC50", "setting": "second compound 0.1 µM", "value": "< 31.6", "unit": "nM"},
      {"measurement": "IC50", "setting": "second compound 0.316 µM", "value": "< 31.6", "unit": "nM"},
      {"measurement": "IC50", "setting": "second compound 1 µM", "value": "< 31.6", "unit": "nM"},
      {"measurement": "viability, T/C", "setting": "second compound 0.00316 µM, first compound 0.0316 µM", "value": 9.92, "unit": "%"},
      {"measurement": "viability, T/C", "setting": "second compound 0.00316 µM, first compound 0.1 µM", "value": 11.3, "unit": "%"},
      {"measurement": "viability, T/C", "setting": "second compound 0.00316 µM, first compound 0.316 µM", "value": 8.82, "unit": "%"},
      {"measurement": "viability, T/C", "setting": "second compound 0.00316 µM, first compound 1 µM", "value": 12.3, "unit": "%"},
      {"measurement": "viability, T/C", "setting": "second compound 0.00316 µM, first compound 3.16 µM", "value": 11.7, "unit": "%"},
      {"measurement": "viability, T/C", "setting": "second compound 0.00316 µM, first compound 10 µM", "value": 14.2, "unit": "%"},
      {"measurement": "viability, T/C", "setting": "second compound 0.01 µM, first compound 0.0316 µM", "value": 8.32, "unit": "%"},
      {"measurement": "viability, T/C", "setting": "second compound 0.01 µM, first compound 0.1 µM", "value": 8.59, "unit": "%"},
      {"measurement": "viability, T/C", "setting": "second compound 0.01 µM, first compound 0.316 µM", "value": 9.28, "unit": "%"},
      {"measurement": "viability, T/C", "setting": "second compound 0.01 µM, first compound 1 µM", "value": 10.8, "unit": "%"},
      {"measurement": "viability, T/C", "setting": "second compound 0.01 µM, first compound 3.16 µM", "value": 14.4, "unit": "%"},
      {"measurement": "viability, T/C", "setting": "second compound 0.01 µM, first compound 10 µM", "value": 11.4, "unit": "%"},
      {"measurement": "viability, T/C", "setting": "second compound 0.0316 µM, first compound 0.0316 µM", "value": 8.72, "unit": "%"},
      {"measurement": "viability, T/C", "setting": "second compound 0.0316 µM, first compound 0.1 µM", "value": 8.61, "unit": "%"},
      {"measurement": "viability, T/C", "setting": "second compound 0.0316 µM, first compound 0.316 µM", "value": 9.75, "unit": "%"},
      {"measurement": "viability, T/C", "setting": "second compound 0.0316 µM, first compound 1 µM", "value": 12.3, "unit": "%"},
      {"measurement": "viability, T/C", "setting": "second compound 0.0316 µM, first compound 3.16 µM", "value": 13.2, "unit": "%"},
      {"measurement": "viability, T/C", "setting": "second compound 0.0316 µM, first compound 10 µM", "value": 14, "unit": "%"},
      {"measurement": "viability, T/C", "setting": "second compound 0.1 µM, first compound 0.0316 µM", "value": 9.31, "unit": "%"},
      {"measurement": "viability, T/C", "setting": "second compound 0.1 µM, first compound 0.1 µM", "value": 9.36, "unit": "%"},
      {"measurement": "viability, T/C", "setting": "second compound 0.1 µM, first compound 0.316 µM", "value": 9.95, "unit": "%"},
      {"measurement": "viability, T/C", "setting": "second compound 0.1 µM, first compound 1 µM", "value": 12.9, "unit": "%"},
      {"measurement": "viability, T/C", "setting": "second compound 0.1 µM, first compound 3.16 µM", "value": 12.4, "unit": "%"},
      {"measurement": "viability, T/C", "setting": "second compound 0.1 µM, first compound 10 µM", "value": 9.63, "unit": "%"},
      {"measurement": "viability, T/C", "setting": "second compound 0.316 µM, first compound 0.0316 µM", "value": 9.62, "unit": "%"},
      {"measurement": "viability, T/C", "setting": "second compound 0.316 µM, first compound 0.1 µM", "value": 7.81, "unit": "%"},
      {"measurement": "viability, T/C", "setting": "second compound 0.316 µM, first compound 0.316 µM", "value": 8.61, "unit": "%"},
      {"measurement": "viability, T/C", "setting": "second compound 0.316 µM, first compound 1 µM", "value": 10.3, "unit": "%"},
      {"measurement": "viability, T/C", "setting": "second compound 0.316 µM, first compound 3.16 µM", "value": 13.6, "unit": "%"},
      {"measurement": "viability, T/C", "setting": "second compound 0.316 µM, first compound 10 µM", "value": 14.5, "unit": "%"},
      {"measurement": "viability, T/C", "setting": "second compound 1 µM, first compound 0.0316 µM", "value": 9.06, "unit": "%"},
      {"measurement": "viability, T/C", "setting": "second compound 1 µM, first compound 0.1 µM", "value": 11.8, "unit": "%"},
      {"measurement": "viability, T/C", "setting": "second compound 1 µM, first compound 0.316 µM", "value": 13.3, "unit": "%"},
      {"measurement": "viability, T/C", "setting": "second compound 1 µM, first compound 1 µM", "value": 12.9, "unit": "%"},
      {"measurement": "viability, T/C", "setting": "second compound 1 µM, first compound 3.16 µM", "value": 12.3, "unit": "%"},
      {"measurement": "viability, T/C", "setting": "second compound 1 µM, first compound 10 µM", "value": 14.5, "unit": "%"}
    ]},
    {"smiles": "CCc1c2c(nc3ccc(O)cc13)-c1cc3c(c(=O)n1C2)COC(=O)[C@]3(O)CC", "note": "+ C=CC(=O)N1CCN(c2nc(OCC3CCCN3C)nc3c(F)c(-c4nc(N)cc(C)c4C(F)(F)F)c(Cl)cc23)C(C)C1", "values": [
      {"measurement": "IC50", "setting": "second compound 0.00316 µM", "value": 1.55, "unit": "nM"},
      {"measurement": "IC50", "setting": "second compound 0.01 µM", "value": 1.4, "unit": "nM"},
      {"measurement": "IC50", "setting": "second compound 0.0316 µM", "value": 1.41, "unit": "nM"},
      {"measurement": "IC50", "setting": "second compound 0.1 µM", "value": 1.24, "unit": "nM"},
      {"measurement": "IC50", "setting": "second compound 0.316 µM", "value": 1.38, "unit": "nM"},
      {"measurement": "IC50", "setting": "second compound 1 µM", "value": 1.18, "unit": "nM"},
      {"measurement": "viability, T/C", "setting": "second compound 0.00316 µM, first compound 0.000949 µM", "value": 62.2, "unit": "%"},
      {"measurement": "viability, T/C", "setting": "second compound 0.00316 µM, first compound 0.003 µM", "value": 33.5, "unit": "%"},
      {"measurement": "viability, T/C", "setting": "second compound 0.00316 µM, first compound 0.00949 µM", "value": 14.6, "unit": "%"},
      {"measurement": "viability, T/C", "setting": "second compound 0.00316 µM, first compound 0.03 µM", "value": 6.38, "unit": "%"},
      {"measurement": "viability, T/C", "setting": "second compound 0.00316 µM, first compound 0.0949 µM", "value": 2.5, "unit": "%"},
      {"measurement": "viability, T/C", "setting": "second compound 0.00316 µM, first compound 0.3 µM", "value": 1.05, "unit": "%"},
      {"measurement": "viability, T/C", "setting": "second compound 0.01 µM, first compound 0.000949 µM", "value": 59, "unit": "%"},
      {"measurement": "viability, T/C", "setting": "second compound 0.01 µM, first compound 0.003 µM", "value": 31.9, "unit": "%"},
      {"measurement": "viability, T/C", "setting": "second compound 0.01 µM, first compound 0.00949 µM", "value": 18.1, "unit": "%"},
      {"measurement": "viability, T/C", "setting": "second compound 0.01 µM, first compound 0.03 µM", "value": 5.58, "unit": "%"},
      {"measurement": "viability, T/C", "setting": "second compound 0.01 µM, first compound 0.0949 µM", "value": 2.2, "unit": "%"},
      {"measurement": "viability, T/C", "setting": "second compound 0.01 µM, first compound 0.3 µM", "value": 1.1, "unit": "%"},
      {"measurement": "viability, T/C", "setting": "second compound 0.0316 µM, first compound 0.000949 µM", "value": 61, "unit": "%"},
      {"measurement": "viability, T/C", "setting": "second compound 0.0316 µM, first compound 0.003 µM", "value": 28.6, "unit": "%"},
      {"measurement": "viability, T/C", "setting": "second compound 0.0316 µM, first compound 0.00949 µM", "value": 14, "unit": "%"},
      {"measurement": "viability, T/C", "setting": "second compound 0.0316 µM, first compound 0.03 µM", "value": 6.21, "unit": "%"},
      {"measurement": "viability, T/C", "setting": "second compound 0.0316 µM, first compound 0.0949 µM", "value": 2.11, "unit": "%"},
      {"measurement": "viability, T/C", "setting": "second compound 0.0316 µM, first compound 0.3 µM", "value": 1.21, "unit": "%"},
      {"measurement": "viability, T/C", "setting": "second compound 0.1 µM, first compound 0.000949 µM", "value": 55.5, "unit": "%"},
      {"measurement": "viability, T/C", "setting": "second compound 0.1 µM, first compound 0.003 µM", "value": 32.2, "unit": "%"},
      {"measurement": "viability, T/C", "setting": "second compound 0.1 µM, first compound 0.00949 µM", "value": 15.7, "unit": "%"},
      {"measurement": "viability, T/C", "setting": "second compound 0.1 µM, first compound 0.03 µM", "value": 4.22, "unit": "%"},
      {"measurement": "viability, T/C", "setting": "second compound 0.1 µM, first compound 0.0949 µM", "value": 2.88, "unit": "%"},
      {"measurement": "viability, T/C", "setting": "second compound 0.1 µM, first compound 0.3 µM", "value": 0.95, "unit": "%"},
      {"measurement": "viability, T/C", "setting": "second compound 0.316 µM, first compound 0.000949 µM", "value": 57.9, "unit": "%"},
      {"measurement": "viability, T/C", "setting": "second compound 0.316 µM, first compound 0.003 µM", "value": 33.1, "unit": "%"},
      {"measurement": "viability, T/C", "setting": "second compound 0.316 µM, first compound 0.00949 µM", "value": 17.6, "unit": "%"},
      {"measurement": "viability, T/C", "setting": "second compound 0.316 µM, first compound 0.03 µM", "value": 6.72, "unit": "%"},
      {"measurement": "viability, T/C", "setting": "second compound 0.316 µM, first compound 0.0949 µM", "value": 2.76, "unit": "%"},
      {"measurement": "viability, T/C", "setting": "second compound 0.316 µM, first compound 0.3 µM", "value": 1, "unit": "%"},
      {"measurement": "viability, T/C", "setting": "second compound 1 µM, first compound 0.000949 µM", "value": 53.6, "unit": "%"},
      {"measurement": "viability, T/C", "setting": "second compound 1 µM, first compound 0.003 µM", "value": 33.9, "unit": "%"},
      {"measurement": "viability, T/C", "setting": "second compound 1 µM, first compound 0.00949 µM", "value": 18.9, "unit": "%"},
      {"measurement": "viability, T/C", "setting": "second compound 1 µM, first compound 0.03 µM", "value": 7.03, "unit": "%"},
      {"measurement": "viability, T/C", "setting": "second compound 1 µM, first compound 0.0949 µM", "value": 2.97, "unit": "%"},
      {"measurement": "viability, T/C", "setting": "second compound 1 µM, first compound 0.3 µM", "value": 1.13, "unit": "%"}
    ]}
  ]
}
